According to PMC6433232, “Targeting mitochondria in cancer therapy could provide a basis for the selective anti-cancer activity” (PLoS ONE, 2019):
Where two headings read alike, the source gives them in different places.

Assays:
[1] = test system: human primary hepatocytes; assay: cells; settings: Hepatocyte, read-out: EC50, μM Hepatocytes
Source text: (§1) We selected hepatocytes as normal cells because hepatocytes are mediate toxicity to multiple drugs and are used as a standard to assess toxicity of drugs in vitro [28]. […] For comparison with the standard of care, doxorubicin was also included in this analysis.

[2] = in vitro; settings: human
Source text: as §1

[3] = biological target: T1, human GAPDH enzyme (Homo sapiens, UniProt P04406); assay: GAPDH activity assay in MIA PaCa-2 cells; format: cell-based; settings: 2 h, read-out: GAPDH, enzyme residual activity as compared to DMSO-treated sample
T1 construct: endogenous in cells; host or cells: MIA PaCa-2 cells
T1 sequence (P04406 whole entry): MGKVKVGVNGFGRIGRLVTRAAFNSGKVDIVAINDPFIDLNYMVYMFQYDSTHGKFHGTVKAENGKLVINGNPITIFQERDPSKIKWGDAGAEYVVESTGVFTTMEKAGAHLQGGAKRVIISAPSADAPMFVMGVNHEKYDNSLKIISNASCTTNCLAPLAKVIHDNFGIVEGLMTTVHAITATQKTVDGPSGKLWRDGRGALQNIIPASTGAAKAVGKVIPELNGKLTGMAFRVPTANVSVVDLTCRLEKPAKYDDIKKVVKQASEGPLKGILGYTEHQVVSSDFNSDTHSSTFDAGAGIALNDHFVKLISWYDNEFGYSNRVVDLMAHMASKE
Method: Cells were incubated for 2 h with either compounds (30 μM) or DMSO in a 6-well plate. Next, cells were collected in 200 μl of PBS and disrupted by sonication. Insoluble material was removed by centrifugation. The level of GAPDH activity was determined by GAPDH activity assay kit (BioVision).
As a final step, we evaluated the inhibitory activity of the selected compounds against human GAPDH enzyme in a cell-based assay using MIA PaCa-2 cells (Table 1). Cells were pre-incubated with compounds for 2 h at 37°C followed by cell lysis using sonication and GAPDH activity assay. The ability of compounds to inhibit GAPDH was expressed as percentage of GAPDH residual activity with respect to DMSO-treated cells. […] Similar to the GSR activity assay, only two of the most toxic compounds 31 and 32, were able to inhibit GAPDH by 95 and 97%, respectively.

[4] = Distribution coefficient LogD; format: physicochemical; settings: pH 7.4
Source text: We conclude that the analysis of the octanol-water partitioning is not sufficient to establish a link between degree of lipophilicity and biological activities of the selected compounds.

[5] = biological target: T2, human GSR enzyme (recombinant GSR) (Homo sapiens, UniProt P00390); assay: Glutathione reductase (GSR) activity assay; format: biochemical; settings: for remaining activity at 30 µM: 2 h at 25°C, read-out: GSR, enzyme residual activity as compared to DMSO-treated sample
T2 construct: made in house; host or cells: E. coli BL21(DE3)
T2 sequence (P00390 44-522): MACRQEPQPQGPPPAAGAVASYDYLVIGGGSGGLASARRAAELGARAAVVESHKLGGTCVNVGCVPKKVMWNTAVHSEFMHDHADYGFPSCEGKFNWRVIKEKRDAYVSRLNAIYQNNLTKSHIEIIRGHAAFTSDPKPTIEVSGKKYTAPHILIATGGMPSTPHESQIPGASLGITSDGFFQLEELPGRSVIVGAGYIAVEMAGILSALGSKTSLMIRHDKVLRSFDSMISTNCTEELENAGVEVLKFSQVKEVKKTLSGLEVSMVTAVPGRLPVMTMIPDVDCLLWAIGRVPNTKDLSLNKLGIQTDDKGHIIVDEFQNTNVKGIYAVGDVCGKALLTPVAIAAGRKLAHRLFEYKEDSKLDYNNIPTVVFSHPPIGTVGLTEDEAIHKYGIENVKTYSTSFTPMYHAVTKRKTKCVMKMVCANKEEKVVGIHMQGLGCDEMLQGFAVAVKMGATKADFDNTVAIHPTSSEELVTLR
Method: Recombinant GSR (0.5 u/well) in a 96-well plate was incubated in the GSR assay buffer (50 mM potassium phosphate buffer, pH 7.5 supplemented with 1 mM EDTA), 100 μl with and without compound (30 μM) for 2 h at 25°C. At the end of incubation, 100 μl of solution containing NADPH (0.087 mM), oxidized glutathione (GSSG) (0.95 mM) and 1 μl of the reagent that detects ratio of GSSG to reduced glutathione (GSH) (Abcam) were added and the mixture was incubated for an additional 1 h at 25°C. GSR activity was measured by using 490-nm excitation and monitoring fluorescence at 520 nm with a fluorescence plate reader. One unit of GSR activity was defined as the amount of enzyme required to produce 1 μM of GSH in a total reaction volume of 200 μl in 1 minute in the GSR assay buffer containing NADPH (0.087 mM), GSSG (0.95 mM) and 1 μl of GSH/GSSG ratio detection reagent (Abcam).
Next, we evaluated the inhibitory activity of the selected compounds against human GSR enzyme using recombinant GSR and Abcam GSH/GSSG ratio detection reagent (Table 1). Briefly, GSR activity was measured by following oxidized glutathione (GSSG) reduction in the presence of NADPH and expressed as percentage of residual activity with respect to DMSO-treated enzyme. The residual activity of GSR for both the non-toxic and toxic compounds was quite heterogeneous, ranging from 100% (compounds 38) to 3% (compound 32). […] We thus conclude that GSR inhibitory activity alone cannot be used to predict the selective cytotoxicity index.

[6] = test system: Recombinant NADH/NADPH dehydrogenase; assay: NADH/NADPH dehydrogenase-mediated ROS generation assay; format: biochemical; settings: 30 μM, 4 h at 37°C; for H2O2 generation, NADH/NADPH dehydrogenase -: absence of NADH/NADPH dehydrogenase; for H2O2 generation, NADH/NADPH dehydrogenase +: presence of NADH/NADPH dehydrogenase
Method: Recombinant NADH/NADPH dehydrogenase (0.5 units/well) in a 96-well plate was incubated in 100 μl of the assay buffer (50 mM potassium phosphate buffer, pH 7.5 supplemented with 1 mM EDTA) containing NADPH (3 μM) and superoxide dismutase (SOD) (100 units/well) with and without compound (30 μM) for 4 h at 37°C. At the end of incubation, the level of hydrogen peroxide was measured using a Hydrogen Peroxide Assay kit (Cayman). Control samples were without NADH/NADPH dehydrogenase. The rate of NADH/NADPH dehydrogenase- and compound-mediated ROS production was determined by subtracting values that were obtained in the absence of NADPH dehydrogenase. One unit of NADH/NADPH dehydrogenase was defined as the amount of enzyme required to reduce 1.0 μmole cytochrome C per min/mg in the presence of menadione substrate at 37°C. One unit of SOD was defined as the amount of enzyme required to inhibit reduction of cytochrome C by 50% in a coupled system with xanthine oxidase at pH 7.8 at 25°C in a 3.0 mL reaction volume. Xanthine oxidase concentration should produce an initial ΔA550 of 0.025 ± 0.005 per min.
As the next step, we examined the capability of the selected compounds to generate ROS in the presence or absence of NADH/NADPH dehydrogenase (Table 1). ROS can be generated by NADH/NADPH-dehydrogenase via the one electron reduction of a quinone ring of 1,4-NQs. Unstable half-reduced quinones (semiquinones) transfer electrons to molecular oxygen, thus generating superoxide anion radicals (O2^●-), which are converted by SOD to hydrogen peroxide. We believe that our assay measuring compound’s ability to generate H2O2 in the presence or absence of NADH/NADPH dehydrogenase more closely resembles conditions inside the cell than the assay designed to measure compound’s redox potential values. […] To determine the ability of compounds to induce ROS, compounds were incubated for 4 h at 37°C with and without NADH/NADPH-dehydrogenase in the presence of NADPH as an electron donor and SOD to convert generated superoxide radicals into hydrogen peroxide. At the end of incubation, 10-acetyl-3,7-dihydroxyphenoxazine (ADHP) and horseradish peroxidase (HRP) were added to the reaction and the level of HRP-mediated formation of the fluorogenic product, resorufin, was measured on a plate reader. ROS production was detected in reactions with either the toxic or non-toxic compounds.

[7] = octanol/water, read-out: LogD, pH = 7.4

| Compound | EC50 [1] | CC50 [2] | remaining activity at 30 µM [3] | logD [4] | remaining activity at 30 µM [5] | inhibition at 30 µM ([5]; read-out: GSR-inhibiting activity) | H2O2 generation, NADH/NADPH dehydrogenase - [6] | H2O2 generation, NADH/NADPH dehydrogenase + [6] | CC50 ([2]; primary hepatocytes) | logD [4, 7] |
| --- | --- | --- | --- | --- | --- | --- | --- | --- | --- | --- |
| CC1=C(N2CC2)C(=O)c2ccccc2C1=O [compound 55] | > 90 µM | > 90 µM | 100% | 0.12 | 83% | 17% | 2.1 µM | 3.3 µM | – | – |
| O=C1C=C(SCCO)C(=O)c2ccccc21 [compound 60] | 3.3 µM | – | 88% | – | 38% | – | 6.9 µM | 12.7 µM | 3.3 µM | 2.99 |
| O=C1C(Nc2ccccc2)=CC(=O)c2ncccc21 [compound 67, reference compound] | 17.8 µM | – | 76% | – | 53% | – | 5.5 µM | 11.9 µM | 17.8 µM | 3.45 |
